Laboratory results taken from patent US20200276094A1, “COMPOSITIONS FOR SKIN EXPOLIATION AND USE THEREOF” (Allergan, Inc., priority 2011, published 2020).
Entries after “also recorded” stand apart in the source; their conditions may differ.

Experiments:
[1] = test system: subjects with mild to moderate photodamage; assay: Study 3: Retinol 3% (oil-free) vs. RA 0.3%, split-face single-blind clinical study, series of three peel procedures
[2] = test system: subjects having Fitzpatrick Skin Types I-IV; settings: split-face: Retinoic Acid 0.3% right side vs Retinol 2% left side; 7-day; FIG. 1
[3] = FIG. 8, post-peel #3, blinded photograph evaluation by an expert physician

Structure (SMILES) | investigator noticed no difference between the sides ([1]; FIG. 4, Retinol 3% (oil-free) vs Retinoic Acid 0.3%) | subjects felt no difference between the sides, post-peel #1 ([1]; FIG. 5, Retinol 3% (oil-free) vs Retinoic Acid 0.3%) | subjects preferred treated side, post-peel #1 subject assessment ([1]; FIG. 5) | subjects felt no difference between the sides, post-peel #2 ([1]; FIG. 6, Retinol 3% (oil-free) vs Retinoic Acid 0.3%) | subjects preferred treated side, post-peel #2 subject assessment ([1]; FIG. 6) | subjects felt no difference between the sides, post-peel #3 ([1]; FIG. 7, Retinol 3% (oil-free) vs Retinoic Acid 0.3%) | subjects preferred treated side, post-peel #3 subject assessment ([1]; FIG. 7) | improvement in fine lines and wrinkles compared to retinoic acid [1, 3] | improvement in photodamage compared to retinoic acid [1, 3] | improvement in unevenness of skin tone compared to retinoic acid [1, 3] | subjects demonstrating a difference favoring the treated side ([1]; end of treatment, one subject) [%] | adverse reaction on treated side ([1]; one subject, treated with topical hydrocortisone for 3 days, resolved, no reaction on re-challenge) | stinging/burning and tightness (investigator and subject assessments) [2]
CC1=C(/C=C/C(C)=C/C=C/C(C)=C/CO)C(C)(C)CCC1 [retinol, (2E,4E,6E,8E)-3,7-dimethyl-9-(2,6,6-trimethylcyclohex-1-enyl)nona-2,4,6,8-tetraen-1-ol] | 95 % of subjects | 75 % of subjects | 15 % of subjects | 85 % of subjects | 5 % of subjects | 95 % of subjects | 5 % of subjects | about twice as much improvement; also recorded: superior efficacy | about twice as much improvement; also recorded: superior efficacy | about twice as much improvement; also recorded: superior efficacy | 5 | irritation (rash, redness) | 
CC1=C(/C=C/C(C)=C/C=C/C(C)=C/C(=O)O)C(C)(C)CCC1 [Retinoic Acid] |  |  | 10 % of subjects |  | 10 % of subjects |  | 0 % of subjects |  |  |  |  |  | more
